In brackets after ≈: the same amount, converted by molar mass. Read-outs that look alike come from different tables or passages of the source.
Key:
[1] = tested on: Escherichia coli ATCC 25922; experiment: Minimum inhibitory concentration, broth micro-dilution (CLSI), E. coli; type: cell-based; details: Escherichia coli, ATCC25922, 22 h, 35° C., 22 hours
[2] = tested on: Escherichia coli MC4100 harboring the IMP4213 (E. coli IMP); experiment: microbe, parasite or virus in culture; type: cell-based; details: Escherichia coli, 22 h, read-out: MIC (μg/mL) E. coli IMP, E. coli MC4100 IMP4213, increased outer-membrane permeability; 35° C., 22 hours
Outline: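 Broth micro-dilution per CLSI in cation-adjusted Mueller Hinton Broth with 0.002% Tween-80; E. coli MC4100 carries IMP4213, raising outer-membrane permeability. Compounds tested as 2-fold serial dilutions (10 concentrations) from 4 μg/mL (protocol 2) or 0.5 μg/mL (protocol 3); inoculum OD600 0.0005, 35° C for 22 hours.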

[3] = molecular target: T1, SpsB (Staphylococcus aureus signal peptidase) (Staphylococcus aureus, UniProt P0A070); experiment: cell-based; type: biochemical; details: SpsB IC50, whole-cell S. aureus (USA300 background, overexpressing SpsB) as SpsB source; fluorogenic peptide substrate, kinetic read 30 min
T1 construct: This assay uses a suspension of Staphylococcus aureus cells as a source of SpsB instead of recombinant SpsB protein; endogenous in cells; host or cells: S. aureus, USA300 background, overexpressing SpsB (whole-cell suspension from frozen pellets)
Outline: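 Whole S. aureus cells (USA300, overexpressing SpsB) in PBS with MgCl2, CaCl2 and 0.1% Tween-80 served as enzyme source, mixed with 20 μM stock of (Dabcyl)βAla-KPAKAAE(Edans) substrate before use. Fluorescence (ex 340/em 490 nm) read kinetically over 30 min. IC50 from reaction rate versus 11-point inhibitor concentration.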

[4] = tested on: Methicillin Resistant Staphylococcus aureus strain USA 300, NRS384; experiment: Minimum inhibitory concentration, broth micro-dilution (CLSI), S. aureus; type: cell-based; details: Staphylococcus aureus, MRSA / NRS 384 / USA300, 22 h, 35° C., 22 hours
Outline: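 Colonies grown 20 hours at 35° C were suspended in cation-adjusted Mueller Hinton Broth with 0.002% Tween-80. Cells were then added to 2-fold compound dilutions starting at 4 or 0.5 μg/mL, at OD600 0.0005.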

[5] = read-out: MIC (μg/mL) E. coli, E. coli ATCC 25922
[6] = read-out: MIC (μg/mL) S. aureus, MRSA USA 300 NRS384
[7] = E. coli ATCC 25922, read-out: MIC (μg/mL) E. coli
[8] = MRSA USA 300 NRS384, read-out: MIC (μg/mL) S. aureus

T1 sequence (P0A070 whole entry): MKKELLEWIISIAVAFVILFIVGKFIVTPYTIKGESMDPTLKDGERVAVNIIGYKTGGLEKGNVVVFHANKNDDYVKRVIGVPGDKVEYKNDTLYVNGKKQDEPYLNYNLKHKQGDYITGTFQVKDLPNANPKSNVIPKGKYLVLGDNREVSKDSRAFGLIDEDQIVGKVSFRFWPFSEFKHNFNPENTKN

## CCCCCCCCCCN[C@@H](CO)C(=O)N(C)[C@@H]1C(=O)N[C@@H](C)C(=O)N[C@H](C(=O)NCC#N)Cc2ccc(OCCN)c(c2)-c2cc1ccc2OCCN [Compound 400]
[1]; [5]
  MIC: > 64 µg/mL
[2]
  MIC: 2 µg/mL (≈ 2.61 µM)
[3]
  IC50: 5 nM
[4]; [6]
  MIC: 0.25 µg/mL (≈ 0.327 µM)

## CCCCCCCCCCCNC(=O)N[C@@H](CCN)C(=O)N(C)[C@@H]1C(=O)N[C@@H](C)C(=O)N[C@H](C(=O)NCC#N)Cc2ccc(OCCN)c(c2)-c2cc1ccc2OCCN [Compound 403]
[1]; [7]
  MIC: 1.3 µg/mL (≈ 1.56 µM)
[2]
  MIC: 0.023 µg/mL (≈ 0.0275 µM)
[3]
  IC50: < 0.5 nM
[4]; [8]
  MIC: 0.029 µg/mL (≈ 0.0347 µM)

## CCCCCCc1ccc(NC(=O)N[C@@H](CCN)C(=O)N(C)[C@@H]2C(=O)N[C@@H](C)C(=O)N[C@H](C(=O)NCC#N)Cc3ccc(OCCN)c(c3)-c3cc2ccc3OCCN)c(C)c1 [Compound 404]
[1]; [5]
  MIC: 2 µg/mL (≈ 2.34 µM)
[2]
  MIC: 0.047 µg/mL (≈ 0.055 µM)
[3]
  IC50: 0.88 nM
[4]; [6]
  MIC: 0.063 µg/mL (≈ 0.0737 µM)

## CCCCCCCCCCC(C)(C)C(=O)N[C@@H](CCN)C(=O)N(C)[C@@H]1C(=O)N[C@@H](C)C(=O)N[C@H](C(=O)NCC#N)Cc2ccc(OCCN)c(c2)-c2cc1ccc2OCCN [Compound 406]
[1]; [7]
  MIC: 2 µg/mL (≈ 2.36 µM)
[2]
  MIC: 0.031 µg/mL (≈ 0.0366 µM)
[3]
  IC50: 1.2 nM
[4]; [8]
  MIC: 0.063 µg/mL (≈ 0.0743 µM)

## CCCCCCCCc1ccc(C(=O)N[C@@H](CCN)C(=O)N(C)[C@@H]2C(=O)N[C@@H](C)C(=O)N[C@H](C(=O)NCC#N)Cc3ccc(OCCN)c(c3)-c3cc2ccc3OCCN)c(OCC(N)=O)c1 [Compound 407]
[1]; [7]
  MIC: 4 µg/mL (≈ 4.31 µM)
[2]
  MIC: 0.047 µg/mL (≈ 0.0507 µM)
[3]
  IC50: 1.1 nM
[4]; [8]
  MIC: 0.047 µg/mL (≈ 0.0507 µM)

## CCCCCCCC(F)(F)c1ccc(C(=O)N[C@@H](CCN)C(=O)N(C)[C@@H]2C(=O)N[C@@H](C)C(=O)N[C@H](C(=O)NCC#N)Cc3ccc(OCCN)c(c3)-c3cc2ccc3OCCN)c(Cl)c1 [Compound 412]
[1]; [5]
  MIC: 0.13 µg/mL (≈ 0.141 µM)
[2]
  MIC: 0.012 µg/mL (≈ 0.013 µM)
[3]
  IC50: 0.6 nM
[4]; [6]
  MIC: 0.031 µg/mL (≈ 0.0335 µM)

## CCCCCCCC(=O)c1ccc(C(=O)N[C@@H](CCN)C(=O)N(C)[C@@H]2C(=O)N[C@@H](C)C(=O)N[C@H](C(=O)NCC#N)Cc3ccc(OCCN)c(c3)-c3cc2ccc3OCCN)c(Cl)c1 [Compound 413]
[1]; [7]
  MIC: 0.25 µg/mL (≈ 0.277 µM)
[2]
  MIC: 0.0078 µg/mL (≈ 0.00864 µM)
[3]
  IC50: 0.88 nM
[4]; [8]
  MIC: 0.031 µg/mL (≈ 0.0343 µM)

## CCCCCCCCCCNCCC(=O)N[C@@H](CCCCN)C(=O)N(C)[C@@H]1C(=O)N[C@@H](C)C(=O)N[C@H](C(=O)NC(C)C#N)Cc2ccc(OCCN)c(c2)-c2cc1ccc2OCCN (some centres unmarked) [Compound 415]
[1]; [5]
  MIC: 64 µg/mL (≈ 71.8 µM)
[2]
  MIC: 4 µg/mL (≈ 4.49 µM)
[3]
  IC50: 14 nM
[4]; [6]
  MIC: > 4 µg/mL

## CCCCCCCCCCCC(=O)N[C@@H](CO)C(=O)N(C)[C@@H]1C(=O)N[C@@H](C)C(=O)N[C@H](C(=O)N[C@H](C#N)C2CC2)Cc2ccc(OCCN)c(c2)-c2cc1ccc2OCCN [Compound 420]
[1]; [7]
  MIC: 24 µg/mL (≈ 28.3 µM)
[2]
  MIC: 1 µg/mL (≈ 1.18 µM)
[3]
  IC50: 8.4 nM
[4]; [8]
  MIC: 4 µg/mL (≈ 4.72 µM)

## CCCCCCCCc1cccc(C(=O)N[C@@H](CCCCN)C(=O)N(C)[C@@H]2C(=O)N[C@@H](C)C(=O)N[C@H](C(=O)NCC#N)Cc3ccc(OCCN)c(c3)-c3cc2ccc3OCCN)c1 [Compound 421]
[1]; [7]
  MIC: 2 µg/mL (≈ 2.27 µM)
[2]
  MIC: 0.063 µg/mL (≈ 0.0714 µM)
[3]
  IC50: 1.6 nM
[4]; [8]
  MIC: 0.063 µg/mL (≈ 0.0714 µM)

## CCCCCCCCc1ccc(C)c(C(=O)N[C@@H](CCCCN)C(=O)N(C)[C@@H]2C(=O)N[C@@H](C)C(=O)N[C@H](C(=O)NCC#N)Cc3ccc(OCCN)c(c3)-c3cc2ccc3OCCN)c1 [Compound 422]
[1]; [7]
  MIC: 1.5 µg/mL (≈ 1.67 µM)
[2]
  MIC: 0.031 µg/mL (≈ 0.0346 µM)
[3]
  IC50: 1.1 nM
[4]; [8]
  MIC: 0.063 µg/mL (≈ 0.0703 µM)

## C[C@@H]1NC(=O)[C@@H](N(C)C(=O)[C@H](CCN)NC(=O)c2ccc(C#Cc3ccccc3)cc2F)c2ccc(OCCN)c(c2)-c2cc(ccc2OCCN)C[C@@H](C(=O)NCC#N)NC1=O [Compound 423]
[1]; [5]
  MIC: 0.44 µg/mL (≈ 0.512 µM)
[2]
  MIC: 0.014 µg/mL (≈ 0.0163 µM)
[3]
  IC50: 0.85 nM
[4]; [6]
  MIC: 0.063 µg/mL (≈ 0.0733 µM)

## C[C@@H]1NC(=O)[C@@H](N(C)C(=O)[C@H](CCN)NC(=O)c2ccc(C#Cc3ccccc3)cc2Cl)c2ccc(OCCN)c(c2)-c2cc(ccc2OCCN)C[C@@H](C(=O)NCC#N)NC1=O [Compound 424]
[1]; [5]
  MIC: 0.56 µg/mL (≈ 0.639 µM)
[2]
  MIC: 0.016 µg/mL (≈ 0.0183 µM)
[3]
  IC50: 0.75 nM
[4]; [6]
  MIC: 0.063 µg/mL (≈ 0.0719 µM)

## Cc1cc(C#Cc2ccccc2)ccc1C(=O)N[C@@H](CCN)C(=O)N(C)[C@@H]1C(=O)N[C@@H](C)C(=O)N[C@H](C(=O)NCC#N)Cc2ccc(OCCN)c(c2)-c2cc1ccc2OCCN [Compound 425]
[1]; [7]
  MIC: 0.63 µg/mL (≈ 0.736 µM)
[2]
  MIC: 0.018 µg/mL (≈ 0.021 µM)
[3]
  IC50: 1.1 nM
[4]; [8]
  MIC: 0.047 µg/mL (≈ 0.0549 µM)

— patent publication US20180327367A1, “MACROCYCLIC BROAD SPECTRUM ANTIBIOTICS” (priority 2015, published 2018)
